This passage reports IC50 results from US11186577B2, “Vasopressin receptor antagonists and products and methods related thereto” (BlackThorn Therapeutics, Inc., priority 2017, dated 2021).

Read-outs that look alike come from different tables or passages of the source. Where only a bound is given, the exact number is not on record here.

Assay [1] deals with human Arginine Vasopressin Receptor 1a (AVPR1a) (Homo sapiens (Human), UniProt P37288). The assay can be described thus: Vasopressin V1A receptor antagonist assay (AVP-evoked calcium, FLIPR, CHO-AVPR1a cells). The assay is classed as cell-based. On the procedure: The purpose of this assay was to determine the inhibitory effect of synthesized compounds on the Vasopressin V1a receptor. The assay as performed in Chinese Hamster Ovary (CHO) cells expressing the human Arginine Vasopressin Receptor 1a (AVPR1a). Arginine Vasopressin (AVP) evokes an increase in intracellular calcium in CHO-AVPR1a cells which is measured in a fluorescence assay on the FLIPR^TETRA using calcium sensitive dyes. Test compounds were assessed for their ability to affect the magnitude of the response to AVP, with antagonists showing a concentration-dependent reduction in the AVP-mediated fluorescence. Compounds were tested in duplicate in a 10-point, 1:3 dilution series starting at a nominal concentration of 3 μM in the assay.
Chain of human Arginine Vasopressin Receptor 1a (AVPR1a) (P37288 whole entry): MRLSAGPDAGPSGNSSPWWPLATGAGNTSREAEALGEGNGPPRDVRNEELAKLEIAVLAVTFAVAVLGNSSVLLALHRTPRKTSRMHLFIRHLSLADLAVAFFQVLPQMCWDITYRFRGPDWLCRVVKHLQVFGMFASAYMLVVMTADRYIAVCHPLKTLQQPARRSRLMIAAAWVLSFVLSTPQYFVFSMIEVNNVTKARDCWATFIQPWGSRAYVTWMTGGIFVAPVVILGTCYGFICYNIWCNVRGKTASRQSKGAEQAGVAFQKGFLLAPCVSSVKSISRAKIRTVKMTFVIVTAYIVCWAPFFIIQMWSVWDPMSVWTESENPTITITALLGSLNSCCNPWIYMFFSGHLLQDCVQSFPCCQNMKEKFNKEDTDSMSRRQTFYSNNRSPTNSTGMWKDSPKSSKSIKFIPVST
CHO-AVPR1a cells were maintained in routine culture in T175 Flasks at 37° C., 5% CO2. The growth medium consists of Ham's F12 media supplemented with 10% v/v fetal bovine serum, 1× non-essential amino acids, and 0.4 mg/ml Geneticin G418.
On day one, cells were harvested from T175 flasks when they are 80-90% confluent by first washing the cell monolayer with PBS and then dissociated using trypsin 0.05%/EDTA (3 mL for a T175 Flask). The flasks were incubated at room temperature until the cells detached. To the cell suspension, 10 ml of growth media was added and the cell density determined using the Vi-Cell automated cell counter. The cells were spun at 1000 rpm for 3 minutes, then the supernatant was carefully removed and discarded. The cell pellet was re-suspended at 6.0e^5 cells/ml in growth media. 25 μL of cells in growth media was dispensed into each well (15,000 cells per well) of a poly-D-lysine coated black, clear bottomed, 384-well plate. The plates were incubated at 37° C., 5% CO2 overnight.
At the start of each assay day, the potency of AVP was assessed and an EC80 concentration determined for subsequent compound profiling. Assays were performed using a two-step addition protocol on the FLIPR^TETRA; first addition of 5 μl of control or test compound at 10× final in assay buffer with 15 min incubation at 37° C., 5% CO2 followed by 10 μl of AVP at 6× final concentration in assay buffer. […] The assay buffer consisted of HBSS (+Ca/+Mg) supplemented with 20 mM HEPES, and for the preparation of the AVP agonist only, 0.1% w/v bovine serum albumin. The assay was initiated by the removal of growth media from the cells and replacement with 45 μl of Calcium-6 dye (Molecular Devices) prepared at 1× in assay buffer. Cells are loaded with dye for 60-90 min at 37° C., 5% CO2 before initiation of the FLIPR^TETRA protocol. […] At the end of the incubation period, 10 μl of AVP in assay buffer containing 0.1% BSA was added at the previously determined EC80 concentration.

Assay [2] addresses human Oxytocin Receptor (hOTR) (Homo sapiens (Human), UniProt P30559). Description: Oxytocin receptor antagonist assay (oxytocin-evoked calcium, FLIPR, CHEM-1-hOTR cells). In kind it is cell-based. The following applies: read-out: OT IC50. Here is the method:
This assay was performed in CHEM-1 cells expressing the human Oxytocin Receptor (hOTR) to determine the inhibitory effect of the compounds of the invention on the human Oxytocin receptor. Oxytocin evokes an increase in intracellular calcium in CHEM-1-hOTR cells which is measured in a fluorescence assay on the FLIPR^TETRA using calcium sensitive dyes. Test compounds were assessed for their ability to affect the magnitude of the response to oxytocin, with antagonists showing a concentration-dependent reduction in the oxytocin-mediated fluorescence.
CHEM-1-hOTR ready was used to assay frozen cells (Eurofins #HTS090RTA) which are supplied with a proprietary Media Component.
Cells were thawed in a 37° C. water bath and diluted with the supplied Media Component to a final volume of 10 ml. The cell suspension was centrifuged at 1000 rpm for 3 min at room temperature and the supernatant was discarded. The cell pellet was resuspended in Media Component (10.5 ml) and the cells (25 μL) were dispensed into a poly-D-lysine coated black, clear bottomed, 384-well plate. The plates were incubated overnight at 37° C., 5% CO2.
At the start of each assay day the potency of oxytocin was assessed and an EC80 concentration was determined for subsequent compound profiling. Assays were performed using a two-step addition protocol on the FLIPR^TETRA; first addition of 5 μl of control or test compound at 10× final in assay buffer with 15 min incubation at 37° C., 5% CO2 followed by 10 μl of oxytocin at 6× final concentration in assay buffer. Changes in fluorescence were monitored for 3 min after both additions on the FLIPR^TETRA using 470-495 nm excitation and 515-575 nm emission wavelengths. The assay buffer consisted of HBSS (+Ca/+Mg) supplemented with 20 mM HEPES, and for the preparation of the oxytocin agonist only, 0.1% w/v bovine serum albumin. The assay was initiated by the removal of growth media from the cells and replaced with 45 μl of Calcium-6 dye (Molecular Devices) prepared at 1× in assay buffer. Cells were loaded with dye for 60-90 min at 37° C., 5% CO2 before initiation of the FLIPR^TETRA protocol. […] For compound profiling, test compounds were first serially diluted in DMSO (10-point curve, 1:3 dilutions) then diluted 33.3-fold in assay buffer prior to addition to the dye loaded cells on the FLIPR^TETRA. At the end of the incubation period 10 μl of oxytocin in assay buffer containing 0.1% BSA was added at the previously determined EC80 concentration.
In-plate controls for the assay include a L-368,899 concentration-response curve as the reference OTR antagonist and an oxytocin concentration-response curve to confirm the reproducibility of the EC80 used for the compound challenge.

Chain of human Oxytocin Receptor (hOTR) (P30559 whole entry): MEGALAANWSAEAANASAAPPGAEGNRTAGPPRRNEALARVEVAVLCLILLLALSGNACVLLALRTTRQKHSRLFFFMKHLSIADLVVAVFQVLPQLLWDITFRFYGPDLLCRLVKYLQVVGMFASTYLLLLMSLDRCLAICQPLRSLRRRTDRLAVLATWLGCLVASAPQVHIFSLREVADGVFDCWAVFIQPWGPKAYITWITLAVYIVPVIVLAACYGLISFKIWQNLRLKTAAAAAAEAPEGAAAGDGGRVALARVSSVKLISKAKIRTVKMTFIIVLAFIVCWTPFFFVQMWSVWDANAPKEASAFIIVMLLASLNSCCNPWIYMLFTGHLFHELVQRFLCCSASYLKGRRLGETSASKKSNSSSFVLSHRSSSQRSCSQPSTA

In the case of `CC1c2nnc(C3CC4(C3)CN(c3ccc(F)cn3)C4)n2-c2ccc(Cl)cc2CN1C(=O)OC1CC1` (stereo not drawn) [compound 191, cyclopropyl 8-chloro-1-(2-(5-fluoropyridin-2-yl)-2-azaspiro[3.3]heptan-6-yl)-4-methyl-4H-benzo[f][1,2,4]triazolo[4,3-a][1,4]diazepine-5(6H)-carboxylate], the IC50 (as a rule, the concentration that inhibits the measured activity by half) in assay [1] (read-out: V1a IC50) was under 100 nM; in assay [2], 500 to 1000 nM.
Turning to `CN1Cc2cc(Cl)ccc2-n2c(nnc2C2CC3(C2)CN(c2cncc(F)c2)C3)C1` [compound 10], the IC50 is 100 to 500 nM in assay [1] and over 1000 nM in assay [2].
Turning to `Cc1cccc(N2CC3(CC(c4nnc5n4-c4ccc(Cl)cc4CN(C)C5)C3)C2)n1` [compound 6], the values for the IC50 in assay [1] (read-out: V1a IC50) and in assay [2] were under 100 nM and over 1000 nM, respectively.
For the compound `CN1Cc2cc(Cl)ccc2-n2c(nnc2C2CC3(C2)CN(C(=O)OC(C)(C)C)C3)C1` [compound 9], the results for the IC50 in assay [1] and in assay [2] were 100 to 500 nM and 500 to 1000 nM, respectively.
As for `COC(=O)N1Cc2cc(Cl)ccc2-n2c(C3CC4(C3)CN(c3ncncc3F)C4)nnc2C1C` (stereo not drawn) [compound 188], the IC50 in assay [1] (read-out: V1a IC50) is under 100 nM; in assay [2], 100 to 500 nM.
The corresponding values for `CCC(=O)N1Cc2cc(Cl)ccc2-n2c(nnc2C2CC3(C2)CN(c2cccc(C)n2)C3)C1` [compound 109] are under 100 nM and over 1000 nM.
As for `CN1Cc2cc(Cl)ccc2-n2c(nnc2C2CC3(C2)CN(c2cccnn2)C3)C1` [compound 13], the IC50 in assay [1] was 100 to 500 nM; in assay [2] it was over 1000 nM.
As to `CCC(=O)N1Cc2cc(Cl)ccc2-n2c(nnc2C2CC3(C2)CN(C(=O)C2CCC2)C3)C1` [compound 37], the IC50 is under 100 nM in assay [1] (read-out: V1a IC50) and over 1000 nM in assay [2].
As for `CC(=O)N1CC2(CC(c3nnc4n3-c3ccc(Cl)cc3CN(C)C4)C2)C1` [compound 15], the IC50 in assay [1] (read-out: V1a IC50) and in assay [2] was over 1000 nM in each case.
For the compound `CN1Cc2cc(Cl)ccc2-n2c(nnc2C2CC3(C2)CN(c2cccnc2)C3)C1` [compound 5], the IC50 in assay [1] was 100 to 500 nM; in assay [2], over 1000 nM.
The corresponding values for `Cc1ccc(N2CC3(CC(c4nnc5n4-c4ccc(Cl)cc4CN(C)C5)C3)C2)nc1` [compound 12] are 100 to 500 nM and over 1000 nM.
Take `CN1Cc2cc(Cl)ccc2-n2c(nnc2C2CC3(C2)CN(C(=O)C2COC2)C3)C1` [compound 14]: the IC50 in assay [1] (read-out: V1a IC50) and in assay [2] was over 1000 nM throughout.
Regarding `CCC(=O)N1Cc2cc(Cl)ccc2-n2c(nnc2C2CC3(C2)CN(c2ccc(F)nn2)C3)C1` [compound 112], the IC50 in assay [1] (read-out: V1a IC50) was under 100 nM; in assay [2] it was over 1000 nM.
The corresponding values for `CC1c2nnc(C3CC4(C3)CN(c3ccc(F)cn3)C4)n2-c2ccc(Cl)cc2CN1C(=O)OC(CF)CF` (single isomer, unassigned) [Cpd 203B] are over 1000 nM and over 1000 nM.
As to `CCOC(=O)N1Cc2cc(Cl)ccc2-n2c(nnc2C2CC3(C2)CN(c2ccccn2)C3)C1` [compound 68], the results for the IC50 in assay [1] (read-out: V1a IC50) and in assay [2] were under 100 nM and over 1000 nM, respectively.
Turning to `O=C(C(F)F)N1Cc2cc(Cl)ccc2-n2c(nnc2C2CC3(C2)CN(C(=O)C2CC2)C3)C1` [compound 138], the IC50 is under 100 nM in assay [1] (read-out: V1a IC50) and over 1000 nM in assay [2].
As for `O=C(NC1CC1)N1Cc2cc(Cl)ccc2-n2c(nnc2C2CC3(C2)CN(c2ccc(F)cn2)C3)C1` [compound 246, 8-chloro-N-cyclopropyl-1-(2-(5-fluoropyridin-2-yl)-2-azaspiro[3.3]heptan-6-yl)-4H-benzo[f][1,2,4]triazolo[4,3-a][1,4]diazepine-5(6H)-carboxamide], the IC50 in assay [1] (read-out: V1a IC50) is under 100 nM.
In the case of `CN1Cc2cc(Cl)ccc2-n2c(nnc2C2CC3(C2)CN(C(=O)C2CCC2)C3)C1` [compound 35], in assay [1], the IC50 was 100 to 500 nM.
As to `CC1c2nnc(C3CC4(C3)CN(c3ccccn3)C4)n2-c2ccc(Cl)cc2CN1C(=O)C1(F)CC1` (single isomer, unassigned) [Cpd 181B], the IC50 in assay [1] (read-out: V1a IC50) was 100 to 500 nM.
Take `FC(F)(F)Oc1cccnc1N1CC2(CC(c3nnc4n3-c3ccc(Cl)cc3CN(C3CC3)C4)C2)C1` [compound 272]: in assay [1] (read-out: V1a IC50), the IC50 was under 100 nM.
